Source: ChEMBL document CHEMBL1201862, “PubChem BioAssay data set” (2004)
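Step 1: Grow cells in 96-well plates. Step 2: Expose to compound for 48 hours at 5 concentrations. Step 3: Interpolate endpoints linearly; if unreached, use highest concentration. GI50: concentration for 50% inhibition of growth.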 Activity calls are given as the source filed them. No stated cut-off is given here; in the data, active = GI50 up to about 1.1 µM and inactive = higher.

Tests used:
Experiment in all cases: NCI anticancer screen, dose series, 48 h
786-0 = test system: 786-0
HCT-116 = test system: HCT-116
HL-60 = test system: HL-60
HT-29 = test system: HT-29
IGROV-1 = test system: IGROV-1
KM12 = test system: KM12
M14 = test system: M14
Malme-3M = test system: Malme-3M
NCI-H460 = test system: NCI-H460
OVCAR-5 = test system: OVCAR-5
OVCAR-8 = test system: OVCAR-8
PC-3 = test system: PC-3
RPMI-8226 = test system: RPMI-8226
SK-MEL-2 = test system: SK-MEL-2
SK-MEL-5 = test system: SK-MEL-5
SNB-19 = test system: SNB-19
SNB-75 = test system: SNB-75
TK-10 = test system: TK-10
HCC 2998 = test system: HCC 2998

Measured: GI50

O=C(OCCN=c1c2ccccc2ccc2ccccc12)c1cc([N+](=O)[O-])cc([N+](=O)[O-])c1
inactive: 786-0 > 100 µM | HCT-116 > 100 µM | HL-60 > 100 µM | HT-29 > 100 µM | IGROV-1 > 100 µM | KM12 > 100 µM | M14 > 100 µM | Malme-3M 21.5 µM | NCI-H460 > 100 µM | OVCAR-5 > 100 µM | OVCAR-8 > 100 µM | PC-3 > 100 µM | RPMI-8226 > 100 µM | SK-MEL-2 > 100 µM | SK-MEL-5 > 100 µM | SNB-19 > 100 µM | SNB-75 > 100 µM | TK-10 > 100 µM

OCC1OC(n2nc(-c3ccccc3)nc2-c2cnccn2)C(O)C(O)C1O (stereo not drawn)
inactive: 786-0 > 100 µM | HCC 2998 > 100 µM | HCT-116 > 100 µM | HL-60 > 100 µM | HT-29 > 100 µM | IGROV-1 > 100 µM | KM12 > 100 µM | M14 > 100 µM | NCI-H460 > 100 µM | OVCAR-5 > 100 µM | OVCAR-8 > 100 µM | PC-3 > 100 µM | RPMI-8226 > 100 µM | SK-MEL-5 > 100 µM | SNB-19 > 100 µM | SNB-75 > 100 µM

CC(=O)C1(C(=O)C(=[N+]=[N-])S(=O)(=O)c2ccccc2)CC1
inactive: 786-0 > 100 µM | HCC 2998 > 100 µM | HCT-116 > 100 µM | HL-60 74.1 µM | HT-29 > 100 µM | IGROV-1 > 100 µM | KM12 > 100 µM | M14 > 100 µM | Malme-3M > 100 µM | NCI-H460 > 100 µM | OVCAR-5 > 100 µM | OVCAR-8 > 100 µM | PC-3 > 100 µM | RPMI-8226 83.2 µM | SK-MEL-2 > 100 µM | SK-MEL-5 > 100 µM | SNB-19 > 100 µM | SNB-75 > 100 µM | TK-10 > 100 µM

Clc1ccc(-c2nn3c(-c4ccncc4)nnc3s2)cc1
inactive: 786-0 11 µM | HCT-116 > 100 µM | HL-60 > 100 µM | HT-29 > 100 µM | IGROV-1 64.4 µM | KM12 > 100 µM | M14 > 100 µM | Malme-3M > 100 µM | NCI-H460 > 100 µM | OVCAR-5 > 100 µM | OVCAR-8 > 100 µM | PC-3 > 100 µM | RPMI-8226 > 100 µM | SK-MEL-2 > 100 µM | SK-MEL-5 > 100 µM | SNB-19 59.2 µM | TK-10 > 100 µM

CC(C)C(=O)OCC1OC(n2c(Br)nc3c(=O)[nH]c(N)nc32)C(OC(=O)C(C)C)C1OC(=O)C(C)C (stereo not drawn)
inactive: 786-0 23.1 µM | HCT-116 30.1 µM | HT-29 17.8 µM | IGROV-1 > 10 µM | M14 > 100 µM | Malme-3M > 100 µM | NCI-H460 23.7 µM | OVCAR-5 75.2 µM | OVCAR-8 31.4 µM | PC-3 21.6 µM | SK-MEL-2 68.1 µM | SK-MEL-5 > 10 µM | SNB-19 81.8 µM | SNB-75 83.9 µM

COc1ccc(C2=C(OC(=O)N(C)C)c3cccn3-c3cc(Cl)ccc3S2)cc1
inactive: 786-0 > 10 µM | HCC 2998 > 10 µM | HL-60 6.1 µM | HT-29 > 10 µM | IGROV-1 > 10 µM | KM12 > 10 µM | M14 > 10 µM | Malme-3M > 10 µM | OVCAR-8 > 10 µM | PC-3 5.64 µM | RPMI-8226 2.73 µM | SK-MEL-5 > 10 µM | SNB-75 > 10 µM | TK-10 > 10 µM
